Laboratory results reported in patent USRE36784E, “Chemoprotective isothiocyanates” (The Johns Hopkins University, priority 1997, dated 2000).
“Also recorded” adds a separate entry of the source. Read-outs that look alike come from different tables or passages of the source.

Columns and labels:
[1] = tested on: Hepa 1c1c7 murine hepatoma cells; conditions: Hepa 1c1c7 cells
Protocol: (§1) Assay of Inducer Potency. Inducer activity was measured in Hepa 1c1c7 murine hepatoma cells grown in 96-well microtiter plates (Prochaska and Santamaria, Anal. Biochem. 169:328-336 (1988); Prochaska et al., Proc. Natl. Acad. Sciences USA 89:2394-2398 (1992)). QR activity (based on the formation of the blue-brown reduced tetrazolium dye) was measured with an optical microtiter plate scanner in cell lysates prepared in one plate, and the cell density was determined in the second plate by staining with crystal violet. Quantitative information on specific activity of QR, the inducer potency, and the cytotoxicity of the extract or compound tested is obtained by computer analysis of the absorbances. One unit of inducer activity is defined as the amount that when added to a single microtiter well doubled the QR specific activity. The CD value is the concentration of a compound required to double the quinone reductase specific activity in Hepa 1c1c7 murine hepatoma cells.

[2] = tested on: quinone reductase (QR) in Hepa 1c1c7 murine hepatoma cells; experiment: Induction of QR (inducer potency, CD value) in Hepa 1c1c7 murine hepatoma cells; assay type: cell-based; conditions: for activity as inducers compared with sulforaphane and sulforaphene: in cell culture
Protocol: as §1
Each of the analogs of sulforaphane was tested for the ability to induce QR in murine hepatoma cells by the assay described in Example 1.
Analogs were synthesized and tested in the hepatoma cell assay described in Example 1.

[3] = tested on: glutathione S-transferase (GST); experiment: Induction of glutathione S-transferase (GST) in mouse tissues after gavage; assay type: in vivo, mouse (female CD-1)
Protocol: (§2) The compounds were administered to 6week-old female CD1 mice (4 or 5 mice
(§3) per group) by gavage in indicated single daily doses in 0.1 ml of Emulpho
(§4) EL 620P (GAF. Linden, NJ) for 5 days. Cytosols were prepared from the
(§5) tissues 24 hr after the last treatment and assayed for enzyme activities
(§6) (glutathione Stransferase was measured with 1chloro-2,4-dinitrobenzene).
(§7) The specific activities (nmol · min^-1 · mg^-1
(§8) ± SEM) of organs of vehicletreated #control mice were as follows.
(§9) 54 ± 5.8: GST. 439 ± 34. Data are presented as mean ± SEM.

[4] = tested on: QR in cl mutant (which synthesizes inactive cytochrome P-450IA1); conditions: data not shown
[5] = tested on: QR in BP^r cl mutant (defective in transport of the liganded Ah receptor to the nucleus); conditions: data not shown
[6] = tested on: phase I and phase II enzymes in mutants of Hepa 1c1c7 cells; conditions: phase II selective = monofunctional
[7] = tested on: QR (quinone reductase); experiment: Induction of QR in mouse tissues after gavage; assay type: in vivo, mouse (female CD-1)
Protocol: as §2, §3, §4, §5, §6, §7, §8, §9

[8] = tested on: phase I and phase II enzymes in mutants of Hepa 1c1c7 cells; conditions: Prochaska et al. 1988; cited from earlier work
[9] = tested on: quinone reductase (QR) in Hepa 1c1c7 murine hepatoma cells; set-up: unit not given here; conditions: footnote 3, reported value; cited from earlier work
[10] = Mus musculus, Hepa-1c1c7, text, isolated (R)- and synthetic (R,S)-sulforaphane, read-out: CD values
[11] = 15 μmol per mouse per day, gavage, 5 days, glandular stomach
[12] = 15 μmol per mouse per day, gavage, 5 days, liver
[13] = 15 μmol per mouse per day, gavage, 5 days, lung
[14] = 15 μmol per mouse per day, gavage, 5 days, proximal small intestine
[15] = Mus musculus, Hepa-1c1c7, read-out: CD, Table 3, QR induction, hepatoma cell assay of Example 1
[16] = Mus musculus, Hepa-1c1c7, read-out: CD value, Table 1, QR induction, Hepa 1c1c7 cells
[17] = Table 3, QR induction, hepatoma cell assay of Example 1, read-out: CD

SMILES	EC (2-fold QR specific activity) [2, 15]	other results
C[S+]([O-])CCCCN=C=S (racemic) [(R,S)-sulforaphane]	–	cytotoxicity in words [1]: relatively noncytotoxic; EC (2-fold QR specific activity) [2, 10]: 0.2 to 0.4 µM
C[S+]([O-])CCCCN=C=S (racemic) [Sulforaphane]	–	rise in glutathione transferase activity in lung ([3]; 15 μmol daily for 5 days, lung): to a lesser degree; Ratio of specific activities (treated/control), GST, Forestomach ([3]; 15 μmol per mouse per day, gavage, 5 days, forestomach): 1.98 ± 0.08; Ratio of specific activities (treated/control), GST, Glandular stomach [3, 11]: 2.97; Ratio of specific activities (treated/control), GST, Liver [3, 12]: 1.86 ± 0.08; Ratio of specific activities (treated/control), GST, Lung [3, 13]: 1.17; Ratio of specific activities (treated/control), GST, Proximal small intestine [3, 14]: 2.13; induction of QR in mutant cells [4]: normal; induction of QR in mutant cells [5]: normal; inducer type [6]: monofunctional inducer; rise in QR activity in lung ([7]; 15 μmol daily for 5 days, lung): to a lesser degree; Ratio of specific activities (treated/control), QR, Forestomach ([7]; 15 μmol per mouse per day, gavage, 5 days, forestomach, *P < 0.05): 1.70 ± 0.18; Ratio of specific activities (treated/control), QR, Glandular stomach [7, 11]: 2.35 ± 0.06; Ratio of specific activities (treated/control), QR, Liver [7, 12]: 2.45 ± 0.07; Ratio of specific activities (treated/control), QR, Lung [7, 13]: 1.37 ± 0.14; Ratio of specific activities (treated/control), QR, Proximal small intestine [7, 14]: 2.34 ± 0.19; EC (2-fold QR specific activity) ([2]; Mus musculus, Hepa-1c1c7, Table 1, QR induction, Hepa 1c1c7 cells, read-out: CD value): 0.4 to 0.8 µM; relative potency as inducers of QR ([2]; comparison in words, Table 1): most potent monofunctional inducer that has been identified; also recorded: equipotent
CS(=O)(=O)[C@@H]1CCC[C@@H](CN=C=S)C1 (relative stereo) [GHP 1079, cis- or trans-3-(methylsulfonyl)cyclohexylmethylisothiocyanate]	0.48 µM	–
CS(=O)(=O)[C@@H]1CCC[C@H](CN=C=S)C1 (relative stereo) [GHP 1080, cis- or trans-3-(methylsulfonyl)cyclohexylmethylisothiocyanate]	0.41 µM	–
C[S@@+]([O-])CCCCN=C=S [(R)-sulforaphane]	–	cytotoxicity in words [1]: relatively noncytotoxic; inducer activity ([2]; 8.9 mg isolated after HPLC/TLC/HPLC): 558,000 inducer units; EC (2-fold QR specific activity) [2, 10]: 0.2 to 0.4 µM
C[S+]([O-])CCCCCN=C=S (stereo not shown) [Alyssin]	–	EC (2-fold QR specific activity) [2, 16]: 0.95 µM; activity as inducers compared with sulforaphane and sulforaphene [2]: less active
S=C=NCc1ccccc1 [Benzylisothiocyanate]	–	inducer type [8]: monofunctional inducer
CSCCCCCN=C=S [Berteroin]	–	EC (2-fold QR specific activity) [2, 16]: 1.7 µM; activity as inducers compared with sulforaphane and sulforaphene [2]: less active
CS(=O)(=O)CCCN=C=S [Cheirolin]	–	EC (2-fold QR specific activity) [2, 16]: 1.3 µM; activity as inducers compared with sulforaphane and sulforaphene [2]: less active
CSCCCCCN=C=S [GHP 1001]	1.71 µM	–
C[S+]([O-])CCCCCN=C=S (stereo not shown) [GHP 1002]	0.94 µM	–
CS(=O)(=O)CCCCCN=C=S [GHP 1003, 1-isothiocyanato-5-methylsulfonylpentane]	0.98 µM	EC (2-fold QR specific activity) [2, 16]: 0.98 µM
S=C=NCCCCCSSCCCCCN=C=S [GHP 1004]	0.83 µM	–
C[S+]([O-])CCCCN=C=S (stereo not shown) [GHP 1005]	–	EC (2-fold QR specific activity) ([2]; Mus musculus, Hepa-1c1c7, Table 3, QR induction, hepatoma cell assay of Example 1, read-out: CD): 0.2 µM
CS(=O)(=O)CCCCN=C=S [GHP 1007]	0.82 µM	–
CSCCCN=C=S [GHP 1008]	3.52 µM	–
C[S+]([O-])CCCN=C=S (stereo not shown) [GHP 1009]	2.36 µM	–
CS(=O)(=O)CCCN=C=S [GHP 1010]	1.32 µM	–
CSCc1ccccc1CN=C=S [GHP 1021]	4.3 µM	–
CSc1ccccc1CCN=C=S [GHP 1022]	7.4 µM	–
CSCCc1ccccc1N=C=S [GHP 1023]	100 µM	–

SMILES	EC (2-fold QR specific activity) [2, 15]	other results
COc1ccccc1N=C=S [GHP 1031]	100 µM	–
S=C=Nc1ccccc1Cl [GHP 1032]	100 µM	–
NC(=O)c1ccc(N=C=S)cc1 [GHP 1033]	100 µM	–
COc1ccccc1CN=C=S [GHP 1041]	2.41 µM	–
COc1cccc(CN=C=S)c1 [GHP 1042]	8.65 µM	–
COc1ccc(CN=C=S)cc1 [GHP 1043]	25 µM	–
COc1cccc(OC)c1CN=C=S [GHP 1044]	5.8 µM	–
CN(C)c1ccccc1CN=C=S [GHP 1045]	12.5 µM	–
CSc1ccccc1CN=C=S [GHP 1046]	6.8 µM	–
Fc1ccccc1CN=C=S [GHP 1047]	13.1 µM	–
S=C=NCc1ccccc1Cl [GHP 1048]	14.1 µM	–
S=C=NCc1ccccc1Br [GHP 1049]	12.5 µM	–
Cc1ccccc1CN=C=S [GHP 1050]	3.7 µM	–
CCOc1ccccc1CN=C=S [GHP 1051]	2.5 µM	–
S=C=NC1CCc2ccccc21 (stereo not shown) [GHP 1052]	38.9 µM	–
CCc1ccccc1CN=C=S [GHP 1053]	12.5 µM	–
CCOC(=O)CN=C=S [GHP 1061]	8.2 µM	–
CS(=O)(=O)c1ccc(CN=C=S)cc1 [GHP 1062]	1.2 µM	–
CS(=O)(=O)C1CC2CC1CC2N=C=S (stereo not shown) [GHP 1063]	1.02 µM	–
CS(=O)(=O)C1CC2CC1CC2N=C=S (stereo not shown) [GHP 1064]	–	EC (2-fold QR specific activity) [2, 17]: 0.66 µM
CC(=O)C1CC2CC1CC2N=C=S (stereo not shown) [GHP 1065]	0.77 µM	–

SMILES	EC (2-fold QR specific activity) [2, 15]	other results
CC(=O)C1CC2CC(N=C=S)C1C2 (stereo not drawn) [GHP 1066, exo-2-acetyl-6-isothiocyanatonorbornane]	0.26 µM	–
CC(=O)C1CC2CC1CC2N=C=S (stereo not drawn) [GHP 1067, exo-2-acetyl-5-isothiocyanatonorbornane]	–	EC (2-fold QR specific activity) [2, 17]: 0.43 µM
CS(=O)(=O)C1CC2CC(N=C=S)C1C2 (stereo not drawn) [GHP 1068, exo-2-isothiocyanato-6-methylsulfonylnorbornane]	0.15 µM	–
COC(=O)C1CC2CC1CC2N=C=S (stereo not shown) [GHP 1069]	0.68 µM	–
COC(=O)C1CC2CC(N=C=S)C1C2 (stereo not shown) [GHP 1070]	1.6 µM	–
N#CC1CC2CC1CC2N=C=S (stereo not shown) [GHP 1071]	0.59 µM	–
O=[N+]([O-])C1CC2CC1CC2N=C=S (stereo not shown) [GHP 1072]	1.05 µM	–
CS(=O)(=O)[C@H]1CC[C@@H](N=C=S)CC1 [GHP 1073, cis-1-isothiocyanate-4-methylsulfonylcyclohexane]	0.44 µM	–
CCOC(=O)C(CCS(C)(=O)=O)N=C=S (stereo not shown) [GHP 1074]	2.64 µM	–
CC(O)C1CC2CC1CC2N=C=S (stereo not drawn) [GHP 1075, exo-2-(1'-hydroxyethyl)-5-isothiocyanatonorbornane]	0.45 µM	–
OC1CC2CC1CC2N=C=S (stereo not shown) [GHP 1077]	1.85 µM	–
CP(C)(=O)CCCCN=C=S [GHP 1078, 1-isothiocyanato-4-dimethylphosphonyl-butane]	0.43 µM	–
CCCCC(=O)CCCCN=C=S [GHP 1081]	2 µM	–
N#CCCCCN=C=S [GHP 1101]	1.97 µM	–
COC(=O)CCCCN=C=S [GHP 1102]	2.81 µM	–
O=C(O)CCCCN=C=S [GHP 1103]	2.19 µM	–
CC(=O)CCCCN=C=S [GHP 1105, 6-isothiocyanato-2-hexanone]	0.23 µM	–
CC(O)CCCCN=C=S (stereo not shown) [GHP 1106, 6-isothiocyanato-2-hexanol]	0.35 µM	–
C[S+]([O-])CCCN=C=S (stereo not shown) [Iberin]	–	EC (2-fold QR specific activity) [2, 16]: 2.4 µM; activity as inducers compared with sulforaphane and sulforaphene [2]: less active
CSCCCN=C=S [Iberverin]	–	EC (2-fold QR specific activity) [2, 16]: 3.5 µM; activity as inducers compared with sulforaphane and sulforaphene [2]: less active
S=C=NC1CCCCC1 [cyclohexylisothiocyanate]	–	CD value (reported) [9]: 14
